# Test results as given in patent US20230119068A1, “METHODS FOR RAPID SYNTHESIS OF PYRANOANTHOCYANINS” (Ohio State Innovation Foundation, priority 2020, published 2023).
# Key:
# [1] = Color expression of cis and trans isomers of acylated delphinidin at different pH; assay type: physicochemical; details: for color expression: pH 4
# Description: Delphinidin-3-(p-coumaroyl)-rutinoside-5-glucoside was extracted from Chinese eggplants, semi-purified and taken to 400 mg/L in methanol. Extract aliquots were placed in sealed quartz cuvettes, with the clear side facing up, and irradiated with different light sources (sunlight, D65 lamp, and UV chamber at 365 nm) for up to 112 hrs. Pigment isomerization was monitored over time on a uHPLC-PDA-MS/MS, using a pentafluorophenyl column and positive electrospray ionization on a triple quadrupole. Cis and trans-delphinidin-derivatives were isolated to compare their color stability and strength. Color was measured on a ColorQuest XE spectrophotometer, using 10° observer angle, illuminant D65, and total transmittance. Data was collected in triplicates and analyzed by two-way ANOVA.
# [2] = tested on: E. coli, S. aureus and B. cereus, and LAB; details: compared with CA and FA; cited from earlier work
Molecule,color expression [1],color intensity ([1]; pH 5),antibacterial activity [2]
Delphinidin-3-(p-coumaroyl)-rutinoside-5-glucoside [trans-delphinidin],bleached completely,,
Delphinidin-3-(p-coumaroyl)-rutinoside-5-glucoside [cis-delphinidin],noticeable color,greater color intensity than the trans-isomer,
"O=C(O)/C=C/c1ccc(O)cc1 [pCA, p-coumaric acid]",,,stronger antibacterial activity
